According to US4965280A, “Antifungal carbinols” (E. I. Du Pont de Nemours and Company, priority 1989, dated 1990):
≈ marks a conversion by molar mass, not a printed value. Read-outs that look alike come from different tables or passages of the source.

Assays:
[1] = tested on: Candida albicans ATCC 11651; assay: In vivo systemic Candida infection in mice, primary assay; set-up: species or system Candida albicans; CF-1 female mice; conditions: 150 mg/kg per day; for responders at 150 mg/kg: Candida albicans, read-out: % Survival
How it was run: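 CF-1 female mice (20 g, 10 per group) were infected IV with 0.2 ml of 1×10^7/ml C. albicans ATCC 11651, then given test compound subcutaneously at 50 or 150 mg/kg/day at 1 and 6 h post-infection and once daily for three more days. Survival was followed for 21 days against infected untreated mice; ≥70% protection at 14 days was scored active.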

[2] = tested on: Fusarium oxysporum f. sp. cucumerinum; assay: Example L cucumber wilt; type: in vivo; conditions: 336 h, 5 kg/ha, read-out: disease control rating, Ex. L
Protocol: […] Seeds and soil were then inoculated with a mixture of sand, cereal and mycelium of the fungus Fusarium oxysporum f. sp. cucumerinum, causal agent of cucumber wilt, and incubated in a growth chamber at 30° C. for 14 days. Disease ratings were then made.

[3] = tested on: Venturia inaequalis; assay: Example A apple scab; type: in vivo; conditions: read-out: disease control rating, Ex. A
How it was run: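 Acetone solution (6% of final vol.) → suspension at 100 or 20 ppm in water + 250 ppm TREM 014 surfactant; sprayed to run-off on apple seedlings.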

[4] = tested on: Rhizoctonia solani; assay: Example F rice sheath blight; type: in vivo
How it was run: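 Spray to run-off on rice seedlings; test suspension 100 or 20 ppm compound in water + 250 ppm TREM 014 surfactant, acetone 6% final volume.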

[5] = tested on: Phytophthora infestans; assay: whole plant or invertebrate; type: in vivo; conditions: for pest or weed control at 100 ppm: Phytophthora infestans, in Solanum lycopersicum, read-out: disease control rating, Ex. H, 100 PPM
[6] = tested on: Sclerotium rolfsii; assay: Example M southern blight; type: in vivo; conditions: Agroathelia rolfsii, 336 h; 5 kg/ha; read-out: disease control rating, Ex. M
Protocol: […] Seeds and soil were then inoculated with a mixture of sand, cereal and mycelium of the fungus Sclerotium rolfsii, causal agent of sourthern blight, and incubated in a growth chamber at 30° C. for 14 days. Disease ratings were then made.

[7] = tested on: Plasmorpara viticola; assay: Example I grape downy mildew; type: in vivo; conditions: read-out: disease control rating, Ex. I
How it was run: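 First, each compound is taken up in acetone amounting to 6% of the final volume. It is then suspended in purified water containing 250 ppm of the polyhydric alcohol ester surfactant TREM 014, at 100 or 20 ppm. Finally, the suspension is sprayed onto grape seedlings until run-off.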

[8] = tested on: Pyricularia oryzae; assay: whole plant or invertebrate; type: in vivo; conditions: for pest or weed control at 100 ppm: read-out: disease control rating, Ex. E, 100 PPM
[9] = tested on: Pythium aphanadermatum; assay: Example J cucumber damping off; type: in vivo; conditions: Pythium, 336 h; 5 kg/ha; read-out: disease control rating, Ex. J
How it was run: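 Seeds and soil were inoculated with a mix of sand, cereal and Pythium aphanadermatum mycelium, the fungus responsible for cucumber damping off. They were kept in a growth chamber at 30° C. for 14 days, and disease was then rated to assess control.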

[10] = tested on: Erysiphe graminis f. sp. tritici; assay: Example D wheat powdery mildew; type: in vivo; conditions: Blumeria graminis, 144 h, read-out: disease control rating, Ex. D
How it was run: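 Spray to run-off on wheat seedlings; test suspension 100 or 20 ppm compound, acetone 6% v/v, 250 ppm polyhydric alcohol ester surfactant in water.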

[11] = tested on: Botrytis cinerea; assay: Example C bean grey mold; type: in vivo
How it was run: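 Broad bean seedlings; foliar spray to run-off. Cmpd 100 or 20 ppm in water + 250 ppm TREM 014, acetone 6% v/v final.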

[12] = tested on: Puccinia recondita; assay: Example G wheat leaf rust; type: in vivo; conditions: read-out: disease control rating, Ex. G
[13] = tested on: Rhizoctonia solani; assay: Example K cotton blight; type: in vivo; conditions: 336 h, 5 kg/ha, read-out: disease control rating, Ex. K
Protocol: […] Seeds and soil were then inoculated with a mixture of sand, cereal and mycelium of the fungus Rhizoctonia solani, causal agent of cotton blight, and incubated in a growth chamber at 30° C. for 14 days. Disease ratings were then made.

[14] = tested on: Aspergillus fumigatus ATCC 28214; assay: In vitro antifungal MIC, microtiter broth dilution; conditions: for MIC: Aspergillus fumigatus, ATCC28214, 24 h, read-out: MIC values, A. fumigatus, 30°, 24 hours
[15] = tested on: Candida albicans ATCC 11651; assay: In vitro antifungal MIC, microtiter broth dilution; conditions: for MIC: Candida albicans, ATCC11651, 24 h, read-out: MIC values, C. albicans, 30°, 24 hours
[16] = tested on: Cercosporidium personatum; assay: Example B Peanut Late Leafspot; type: in vivo; conditions: Nothopassalora personata, read-out: disease control rating, Ex. B
How it was run: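 Foliar spray on peanut seedlings, to run-off; test rates 100 or 20 ppm. Formulation: acetone at 6% of final volume, water with 250 ppm polyhydric alcohol ester surfactant.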

[17] = Rhizoctonia solani, 144 h, 100 PPM, read-out: disease control rating, Ex. F
[18] = Botrytis cinerea, 24 h, 100 PPM, read-out: disease control rating, Ex. C

| Structure (SMILES) | responders at 150 mg/kg ([1]; ATCC11651, 168 h, day 7) [%] | responders at 150 mg/kg ([1]; ATCC11651, 336 h, day 14) [%] | responders at 150 mg/kg ([1]; ATCC11651, 504 h, day 21) [%] | pest or weed control at 5000 g/ha [2] [%] | pest or weed control at 100 ppm [3] [%] | pest or weed control at 100 ppm [4, 17] [%] | pest or weed control at 100 ppm [5] [%] | pest or weed control at 5000 g/ha [6] [%] | pest or weed control at 100 ppm [7] [%] | pest or weed control at 100 ppm ([8]; Pyricularia oryzae, 120 h) [%] | pest or weed control at 5000 g/ha [9] [%] | pest or weed control at 100 ppm [10] [%] | pest or weed control at 100 ppm [11, 18] [%] | pest or weed control at 100 ppm [12] [%] | pest or weed control at 5000 g/ha [13] [%] | MIC [14] [µg/mL] | MIC [15] [µg/mL] | pest or weed control at 100 ppm [16] [%] | further results |
| --- | --- | --- | --- | --- | --- | --- | --- | --- | --- | --- | --- | --- | --- | --- | --- | --- | --- | --- | --- |
| C=C(c1ccc(F)cc1)C(Cn1cncn1)(OC)c1ccc(F)cc1 (centres unmarked) [Example 359] | 100 | 80 | 80 | 0 | 72 | 62 | 0 | 0 | 0 | 88 | 0 | 95 | 83 | 100 | 0 | 50 (≈ 146 µM) | 0.4 (≈ 1.17 µM) | 100 |  |
| C=C(c1cccc(Cl)c1)C(O)(Cn1cncn1)c1ccc(F)cc1 (centres unmarked) [Example 39] | 100 | 80 |  | 0 | 89 | 100 | 0 | 0 | 81 | 7 | 0 | 98 | 96 | 100 | 0 | 25 (≈ 72.7 µM) | 0.4 (≈ 1.16 µM) | 97 |  |
| C=C(c1ccccc1Cl)C(O)(Cn1cncn1)c1ccc(Cl)cc1 (centres unmarked) [Example 34] | 100 | 100 | 100 | 0 | 69 | 16 | 0 | 0 | 0 | 86 | 0 | 60 | 94 | 66 | 0 | 3.2 (≈ 8.88 µM) | 0.03 (≈ 0.0833 µM) | 100 |  |
| C=C(c1ccccc1F)C(O)(Cn1cncn1)c1ccc(F)cc1 (centres unmarked) [Example 10] | 20 | 10 | 0 | 0 | 0 | 17 | 0 | 0 | 0 | 0 | 0 | 63 | 52 | 64 | 0 | 25 (≈ 76.4 µM) | 1.6 (≈ 4.89 µM) | 76 |  |
| C=C(c1ccc(F)cc1)C(O)(Cn1cncn1)c1ccc(F)cc1 (single isomer, unassigned) [Example 1277] | 100 |  |  | 0 | 9 |  |  | 0 | 25 |  | 0 | 0 |  | 39 | 0 |  |  | 65 | % Survival ([1]; day 14): 100%; % Survival ([1]; day 21): 90%; disease control rating, Ex. F ([4]; 100 PPM): 0%; disease control rating, Ex. H ([5]; 100 PPM): 0%; disease control rating, Ex. E ([8]; 100 PPM): 0%; disease control rating, Ex. C ([11]; 100 PPM): 0%; MIC values, A. fumigatus ([14]; 30°, 24 hours): 6.3 µg/mL (≈ 19.2 µM); MIC values, C. albicans ([15]; 30°, 24 hours): 0.03 µg/mL (≈ 0.0916 µM) |
| C=C(c1cccc(Cl)c1)C(O)(Cn1cncn1)c1ccc(Cl)c(Cl)c1 (centres unmarked) [Example 905] | 80 | 50 | 20 | 0 |  | 37 | 0 | 0 | 87 | 0 | 0 |  | 19 |  | 0 | 100 (≈ 253 µM) | 0.04 (≈ 0.101 µM) |  | pest or weed control at 20 ppm ([3]; 20 PPM): 7%; pest or weed control at 20 ppm ([4]; Rhizoctonia solani, 144 h, 20 PPM, read-out: disease control rating, Ex. F): 0%; pest or weed control at 20 ppm ([8]; Pyricularia oryzae, 120 h, read-out: disease control rating, Ex. E, 20 PPM): 0%; pest or weed control at 20 ppm ([10]; 20 PPM): 47%; pest or weed control at 20 ppm ([11]; Botrytis cinerea, 24 h, 20 PPM, read-out: disease control rating, Ex. C): 15%; pest or weed control at 20 ppm ([12]; 20 PPM): 16%; pest or weed control at 20 ppm ([16]; 20 PPM): 0% |
| C=C(c1ccccc1)C(O)(Cn1ncnc1S)c1ccc(F)cc1 (centres unmarked) [Example 1278] | 0 | 0 | 0 | 0 | 100 | 36 | 0 | 0 | 16 | 17 | 0 | 85 | 87 | 100 | 0 | > 100 | ≤ 0.4 | 100 |  |
| C=C(c1ccc(F)cc1)C(O)(Cn1cncn1)c1ccccc1Cl (centres unmarked) [Example 646] | 100 | 100 | 70 | 0 | 100 | 61 | 0 | 0 | 99 | 97 | 100 | 98 | 95 | 100 | 0 | 0.4 (≈ 1.16 µM) | 0.03 (≈ 0.0873 µM) | 100 |  |
